Results: US6673902B2, “Cyclin D binding factor, and uses thereof” (St. Jude Children's Research Hospital, priority 1996, dated 2004)

Columns and labels:
[1] = test system: BS2-driven reporter plasmid; assay: Transactivation of BS2-driven luciferase reporter in 293T cells; assay type: cell-based, human; conditions: 1 μg BS2-driven reporter
Excerpt: An XbaI-EcoRV fragment containing the entire DMP1 coding sequence is subcloned by blunt end ligation into a SpeI-XbaI fragment of the Rc/RSV vector (Invitrogen, La Jolla Calif.) to enable DMP1 expression in mammalian cells. 6×concatamerized BS1, 8×concatamerized, BS2, or 7×concatamerized M3 oligonucleotides (FIG. 5B) are inserted into the XhoI-SmaI sites of pGL2 (Pfornega) 5′ to a minimal simian virus 40 (SV40) early promoter driving firefly luciferase gene expression. The latter “reporter” plasmid (1 μg) together with increasing amounts of pRc/RSV-DMP1 expression plasmid compensated by decreasing quantities of control pRc/RSV DNA (total of both=2.5 μg) were transfected into 293T cells (1.5×10^6 cells per 60 mm diameter culture dish) by calcium phosphate precipitation (7). Two days later, cells were harvested, washed three times with PBS, and lysed in 1 ml of 25 mM glycylglycine (Sigma), pH 7.8, 15 mM MgSO4, 4 mM EDTA, 1 mM DTT, and 1% Triton X-100. After clearing by centrifugation, 50 μl aliquots were assayed diluted to 350 μl using 15 mM potassium phosphate buffer, pH 7.8, containing 15 mM MgSO4, 4 mM EGTA, 2 mM ATP, 1 mM DTT, and 67 uM luciferin (Sigma). Total light emission was measured for duplicate samples during the initial 20 seconds after luciferin injection with an Optocomp I luminometer (MGM Instruments, Hamden Conn.). […]

p19ARF = assay: Induction of endogenous p19ARF protein in retrovirus-infected MEFs; assay type: cell-based, mouse
Description: Virus production and infection. Human kidney 293T cells were transfected with a helper ecotropic retrovirus plasmid defective in psi-2 packaging sequences, together with pSRα vectors containing murine DMP1, human c-Myc, human E2F-1, or human Ets1 cDNAs [Zindy, et al., Genes Dev. 12:2424-2433 (1998); Inoue and Sherr, J. Biol. Chem. 273:29188-29194 (1998)]. Viruses were harvested every 6 hours 24-72 hours after transfection, filtered and stored at 4° C. until used for infection [Zindy, et al., Genes Dev. 12:2424-2433 (1998)]. In order to construct a retroviral vector containing DMP1 linked to a mutated tamoxifen-responsive element of the estrogen receptor (DMP1-ER™), a 3′ 0.3 kb EcoNI DNA fragment of murine DMP1 cDNA was amplified by PCR using
RNA and protein expression. Quantitative RT-PCRs employed specific primers for murine ARF exon 1β (30 cycles) and for β-actin (20 cycles) used as a control [Zindy et al., Oncogene 15:203-211 (1997)]. […]
Based on the above observations, it was determined as to whether introduction of DMP1 would induce synthesis of the endogenous ARF protein in normal diploid fibroblast strains. […] Although the blot was normalized for protein input, the levels of p19^ARF induced by DMP1 were calculated to be 2-fold higher than those induced by Myc, because fewer cells were productively infected with the DMP1 virus in this experiment (see FIG. 15A).

Substance: DMP1: murine cyclin D-associated myb-like transcription factor, 761 amino acids, SEQ ID NO:1
- transactivation of luciferase activity relative to reporter plasmid alone [1]: ~20 fold
- levels of p19ARF induced relative to those induced by Myc (p19ARF; corrected for fraction of productively infected cells): 2 fold
- ARF protein synthesis (p19ARF; early passage MEFs, retroviral infection): induced ARF protein synthesis
